This test concerns the target T1, human Y4 receptor (Homo sapiens, UniProt P50391).
T1 construct: expressed in transfected cells
The test can be described thus: NPY4 cAMP HTRF Agonist Assay (inhibitory cAMP assay, Gi activation by Y4 agonism). The test is classed as cell-based. In short, it runs like this:
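CHO cells stably expressing human Y4, 5000/well, exposed to compound with forskolin and IBMX in PBS for 30 min at room temperature. Gi-mediated inhibition of cAMP then measured by HTRF after 1 h with d2-conjugate and anti-cAMP cryptate.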
(In general: TR-FRET usually uses a lanthanide donor and a delayed reading to cut background.)

Setting [1] is: human Y4 receptor, cAMP, read-out: hY4 CAMP EC50.
The mark [2] stands for this setting: TABLE 2, R2 is Phenyl-CN, read-out: hY4 CAMP EC50.
Setting [3] is: human Y4 stable CHO clonal cells, forskolin + IBMX, read-out: NPY4 cAMP HTRF Agonist Assay EC50.
Where [4] appears, read: second TABLE 1, R2 is Phenyl-CF3, read-out: hY4 CAMP EC50.
[5] abbreviates: TABLE 4, R2 is Pyridinyl-CN, read-out: hY4 CAMP EC50.

pEC50: −log10 of the molar value. Where two headings read alike, the source gives them in different places.

T1 sequence (P50391 whole entry): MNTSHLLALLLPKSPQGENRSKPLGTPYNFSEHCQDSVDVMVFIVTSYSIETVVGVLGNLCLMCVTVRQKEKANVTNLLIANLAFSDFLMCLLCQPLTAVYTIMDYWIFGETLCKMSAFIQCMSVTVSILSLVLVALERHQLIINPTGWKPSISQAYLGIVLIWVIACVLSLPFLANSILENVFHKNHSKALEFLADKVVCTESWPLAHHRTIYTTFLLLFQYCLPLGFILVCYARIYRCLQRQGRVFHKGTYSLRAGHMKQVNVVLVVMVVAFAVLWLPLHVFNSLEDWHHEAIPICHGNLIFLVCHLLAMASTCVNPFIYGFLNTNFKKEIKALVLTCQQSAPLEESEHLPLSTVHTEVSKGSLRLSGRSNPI

Take `NC(=O)c1cccc(-c2cnc(N[C@@H]3CCCC[C@H]3N[C@H]3CCCN(c4ccc(F)cc4)C3)o2)c1` [Example 461]: under setting [1], the pEC50 – broadly, −log10 of the EC50, conventionally taken in molar units – is 7.26.
As to `Cc1nc(-c2ncc(N3CCC[C@H](N[C@@H]4CCCC[C@H]4Nc4cc(-c5cccc(C(N)=O)c5)ccn4)C3)cn2)no1` [Example 463], the pEC50 under setting [1] was 7.41.
Consider `N#Cc1ccc(N2C[C@@H]3C[C@H](N[C@@H]4CCCC[C@H]4Nc4cc(-c5ccccc5)ccn4)[C@H]2C3)cc1` [Example 232], for which the pEC50 under setting [2] was 7.43.
As for `N#Cc1ccc(N2CCC[C@H](N[C@@H]3CCCC[C@H]3Nc3cc(-n4cccn4)ccn3)C2)cc1` [Example 284], the pEC50 under setting [2] was 6.75.
The same measure, in the same setting: the figure for `N#Cc1ccc(N2CCC[C@H](N[C@@H]3CCCC[C@H]3Nc3cc(-c4ccc(N)cc4)ccn3)C2)cc1` [Example 239] is 6.54; for `CC(C)(O)c1cccc(-c2cnc(N[C@@H]3CCCC[C@H]3N[C@H]3CCCN(c4ccc(C#N)cc4)C3)o2)c1` [Example 207] it is 7.41.
On the same count and under the same terms, the figure for `N#Cc1ccc(N2CCC[C@H](N[C@@H]3CCCC[C@H]3Nc3cc(-c4cccc(N)c4)ccn3)C2)cc1` [Example 279] is 7.92.
Consider `Cn1nnc(-c2ccc(N3CCC[C@H](N[C@@H]4CCCC[C@H]4Nc4cc(-c5cccc(NS(C)(=O)=O)c5)ccn4)C3)cc2)n1` [Example 507], for which the pEC50 under setting [1] was 8.22.
`COC(=O)c1cccc(-c2cnc(N[C@@H]3CCCC[C@H]3N[C@H]3CCCN(c4ccc(-c5noc(C)n5)nc4)C3)o2)c1` [Example 383]: the pEC50 (TABLE 7, R2 is Pyridinyl-oxadiazole-CH3, read-out: hY4 CAMP EC50) was 7.85.
Regarding `N#Cc1ccc(N2CCC[C@H](N[C@@H]3CCCC[C@H]3Nc3cc(-c4ccccc4C#N)ccn3)C2)cc1` [Example 274], the negative-log EC50 (pEC50) under setting [2] was 6.57.
Take `C[C@]1(N[C@@H]2CCCC[C@H]2Nc2ncc(-c3ccc(OC(F)(F)F)cc3)o2)CCCN(c2ccc([N+](=O)[O-])cc2)C1` [Example 96, (1R,2R)—N1-((S)-3-Methyl-1-(4-nitrophenyl)piperidin-3-yl)-N2-(5-(4-(trifluoromethoxy)phenyl)oxazol-2-yl)cyclohexane-1,2-diamine bis-trifluoroacetate]: the pEC50 under setting [3] is 9.00.
`FC(F)(F)c1ncc(N2CCC[C@H](N[C@@H]3CCCC[C@H]3Nc3ncc(-c4ccccc4)o3)C2)cn1` [Example 406]: the pEC50 under setting [1] is 7.18.
In the case of `C[C@@H](O)c1cccc(-c2ccnc(N[C@@H]3CCCC[C@H]3N[C@H]3CCCN(c4ccc(C(F)(F)F)cc4)C3)c2)c1` [Example 168], the pEC50 under setting [4] is 7.85.
Turning to `N#Cc1ccc(N2CCC[C@H](N[C@@H]3CCCC[C@H]3Nc3ncc(-c4ccccc4)o3)C2)cc1F` [Example 48, 2-Fluoro-4-((S)-3-((1R,2R)-2-(5-phenyloxazol-2-ylamino)cyclohexylamino)piperidin-1-yl)benzonitrile bis-trifluoroacetate], the negative logarithm of the EC50 (pEC50) under setting [3] is 8.22.
On the same count and under the same terms, the figure for `CCOC(=O)Nc1cccc(-c2cnc(N[C@@H]3CCCC[C@H]3N[C@H]3CCCN(c4cnc(C(F)(F)F)cn4)C3)o2)c1` [Example 98, Ethyl 3-(2-((1R,2R)-2-((S)-1-(5-(trifluoromethyl)pyrazin-2-yl)piperidin-3-ylamino)cyclohexylamino)oxazol-5-yl)phenylcarbamate] is 9.15.
As to `C[C@]1(N[C@@H]2CCCC[C@H]2Nc2ncc(-c3cccc(C(N)=O)c3)o2)CCCN(c2ccc(C(F)(F)F)cc2)C1` [Example 106, 3-(2-(((1R,2R)-2-(((S)-3-Methyl-1-(4-(trifluoromethyl)phenyl)piperidin-3-yl)amino)cyclohexyl)amino)oxazol-5-yl)benzamide], the pEC50 under setting [3] was 9.52.
For the compound `O=[N+]([O-])c1ccc(N2CCC[C@H](N[C@@H]3CCCC[C@H]3Nc3ncc(-c4ccc(OC(F)F)cc4)o3)C2)cc1` [Example 13, (1R,2R)—N1-(5-(4-(Difluoromethoxy)phenyl)oxazol-2-yl)-N2-((S)-1-(4-nitrophenyl)piperidin-3-yl)cyclohexane-1,2-diamine], the negative-log EC50 (pEC50) under setting [3] was 8.52.
As for `FC(F)(F)Oc1ccc(-c2cnc(N[C@@H]3CCCC[C@H]3N[C@H]3C[C@@H]4C[C@H]3N(c3cc(Cl)ncn3)C4)o2)cc1` [Example 510], the pEC50 under setting [1] is 7.09.
Same read-out and setting: the value for `COC(=O)c1cccc(-c2cnc(N[C@@H]3CCCC[C@H]3N[C@H]3CCCN(c4ccc5nc(C)nn5c4)C3)o2)c1` [Example 495] was 7.31.
Turning to `FC(F)(F)c1ccc(N2CCC[C@H](N[C@@H]3CCCC[C@H]3Nc3ncc(Br)cn3)C2)cc1` [Example 182], the pEC50 under setting [4] was 6.59.
Same read-out and setting: the value for `CCNC(=O)c1cccc(-c2ccnc(N[C@@H]3CCCC[C@H]3N[C@H]3CCCN(c4ccc(C(F)(F)F)cc4)C3)c2)c1` [Example 138] was 8.05.
Turning to `COC(=O)Nc1cccc(-c2cnc(N[C@@H]3CCCC[C@H]3N[C@H]3CCCN(c4cnc(-c5noc(C)n5)nc4)C3)o2)c1` [Example 466], the negative logarithm of the EC50 (pEC50) under setting [1] is 9.00.
As to `NC(=O)c1cccc(-c2ccnc(N[C@@H]3CCCC[C@H]3N[C@H]3CCCN(c4ccc(C(F)(F)F)cc4)C3)c2)c1` [Example 119], the pEC50 under setting [4] is 8.40.
On the same count and under the same terms, the figure for `CC(C)NC(=O)c1cccc(-c2cnc(N[C@@H]3CCCC[C@H]3N[C@H]3CCCN(c4ccc(C(F)(F)F)cc4)C3)o2)c1` [Example 125] is 7.96.
As to `N#Cc1ccc(N2CCC[C@H](N[C@@H]3CCCC[C@H]3Nc3nccc(-c4ccccc4)n3)C2)cc1Cl` [Example 40, 2-Chloro-4-((S)-3-((1R,2R)-2-(4-phenylpyrimidin-2-ylamino)cyclohexylamino)piperidin-1-yl)benzonitrile bis-trifluoroacetate], the pEC50 under setting [3] was 7.54.
Take `CNC(=O)c1cccc(-c2cnc(N[C@@H]3CCCC[C@H]3N[C@H]3CCCN(c4ccc(C(F)(F)F)cc4)C3)o2)c1` [Example 105, N-Methyl (3-(2-((1R,2R)-2((S)-1-(4-trifluoromethyl)phenyl)piperidin-3-ylamino)cyclohexylamino)oxazol-5-yl)benzamide]: under setting [3], the pEC50 was 9.70.
In the case of `N#Cc1ccc(N2C[C@@H]3C[C@H](N[C@@H]4CCCC[C@H]4Nc4cc(-c5cccc(C(N)=O)c5)ccn4)[C@H]2C3)nc1` [Example 299], the pEC50 under setting [5] is 6.41.
For `N#Cc1ccc(N2C[C@@H]3C[C@H](N[C@@H]4CCCC[C@H]4Nc4ncc(-c5ccc(C(N)=O)cc5)o4)[C@H]2C3)cc1` [Example 238], the pEC50 under setting [2] is 6.57.
`N#Cc1cc(N2CCC[C@H](N[C@@H]3CCCC[C@H]3Nc3ncc(-c4ccccc4OC(F)(F)F)o3)C2)ccn1` [Example 311]: under setting [5], the negative-log EC50 (pEC50) was 8.05.
`N#Cc1ncc(N2CCC[C@H](N[C@@H]3CCCC[C@H]3Nc3cc(-c4cc(F)c(F)cc4F)ccn3)C2)cn1` [Example 436]: the negative-log EC50 (pEC50) under setting [1] was 6.12.
For the compound `C[C@]1(N[C@@H]2CCCC[C@H]2Nc2ncc(-c3cccc(C(N)=O)c3)o2)CCCN(c2cnc(C#N)cn2)C1` [Example 476], the negative logarithm of the EC50 (pEC50) under setting [1] was 7.31.
With `NC(=O)c1cccc(-c2cnc(N[C@@H]3CCCC[C@H]3N[C@H]3CCCN(c4ccc(-n5cncn5)cc4)C3)o2)c1` [Example 500], the pEC50 under setting [1] was 7.00.
`O=[N+]([O-])c1ccc(N2CCC[C@H](N[C@@H]3CCCC[C@H]3Nc3cc(-c4ccc(OC(F)(F)F)cc4)ccn3)C2)cc1` [Example 24, (1R,2R)—N1-((S)-1-(4-Nitrophenyl)piperidin-3-yl)-N2-(4-(4-(trifluoromethoxy)phenyl)pyridin-2-yl)cyclohexane-1,2-diamine]: the negative logarithm of the EC50 (pEC50) under setting [3] is 7.16.
`COC(=O)Nc1cccc(-c2cnc(N[C@@H]3CCCC[C@H]3N[C@H]3CCCN(c4ccc(C(F)(F)F)cc4)C3)o2)c1` [Example 100, Methyl (3-(2-((1R,2R)-2(S)-1-(4-trifluoromethyl)phenylpiperidin-3-ylamino)cyclohexylamino)oxazol-5-yl)phenylcarbamate]: the negative logarithm of the EC50 (pEC50) under setting [3] is 8.52.
`CCOC(=O)Nc1cccc(-c2cnc(N[C@@H]3CCCC[C@H]3N[C@H]3CCCN(c4ccc(C#N)cc4)C3)o2)c1` [Example 205]: the pEC50 under setting [2] was 9.70.
In the case of `CCc1nc(-c2ccc(N3CCC[C@H](N[C@@H]4CCCC[C@H]4Nc4cc(-c5cccc(C(N)=O)c5)ccn4)C3)nc2)no1` [Example 447], the pEC50 under setting [1] is 8.10.
Regarding `CNCc1cccc(-c2ccnc(N[C@@H]3CCCC[C@H]3N[C@H]3CCCN(c4ccc(C(F)(F)F)cc4)C3)c2)c1` [Example 144], the negative-log EC50 (pEC50) under setting [4] was 7.59.
As to `O=[N+]([O-])c1ccc(N2CCC[C@H](N[C@@H]3CCCC[C@H]3Nc3nccc(-c4ccc(OC(F)(F)F)cc4)n3)C2)cc1` [Example 28, (1R,2R)—N1-((S)-1-(4-Nitrophenyl)piperidin-3-yl)-N2-(4-(4-(trifluoromethoxy)phenyl)pyrimidin-2-yl)cyclohexane-1,2-diamine], the pEC50 under setting [3] is 6.66.
In the case of `C[C@]1(N[C@@H]2CCCC[C@H]2Nc2ncc(-c3ccc(OC(F)(F)F)cc3)o2)CCCN(c2ccc([N+](=O)[O-])cc2)C1` [Example 287], the pEC50 (TABLE 3, R2 is Phenyl-NO2, read-out: hY4 CAMP EC50) is 9.00.
As to `Cc1nnc(-c2ccc(N3CCCC(N[C@@H]4CCCC[C@H]4Nc4cc(-c5cccnc5)ccn4)C3)cc2)o1` (stereo partly shown) [Example 345], the negative logarithm of the EC50 (pEC50) under setting [1] was 7.19.
Regarding `FC(F)(F)c1ccc(N2CCC[C@H](N[C@@H]3CCCC[C@H]3Nc3cc4ccccc4cn3)C2)cc1` [Example 195], the pEC50 under setting [4] is 7.32.
Regarding `COC(=O)c1cccc(-c2cnc(N[C@@H]3CCCC[C@H]3N[C@H]3CCCN(c4ccc5ncnn5c4)C3)o2)c1` [Example 484], the pEC50 under setting [1] was 6.51.
Consider `O=[N+]([O-])c1ccc(N2CCC[C@H](N[C@@H]3CCCC[C@H]3Nc3ncc(-c4ccc(O)cc4)o3)C2)cc1` [Example 12, 4-(2-((1R,2R)-2-((S)-1-(4-Nitrophenyl)piperidin-3-ylamino)cyclohexylamino)oxazol-5-yl)phenol], for which the negative logarithm of the EC50 (pEC50) under setting [3] was 9.00.

The record behind these values is patent US8815909B2, “Diaminocyclohexane compounds and uses thereof” (Bristol-Myers Squibb Company, priority 2011, dated 2014).
